Assay results taken from patent US20190111154A1, “TREATMENT OF NEUROPATHY WITH DNA CONSTRUCT EXPRESSING HGF ISOFORMS WITH REDUCED INTERFERENCE FROM GABAPENTINOIDS” (ViroMed Co., Ltd., priority 2017, published 2019).

Tests used:
[1] = Von Frey filament test in chronic constriction injury (CCI) mice, Example 1; type: in vivo; details: for paw withdrawal frequency: day 14-16
Experimental: FIG. 2 illustrates the experimental procedure for testing effects of gabapentin on VM202-mediated pain reduction using chronic constriction injury (CCI) mice. Surgical procedure on sciatic nerve (CCI or sham) was performed and a plasmid (pCK or VM202) was administered to 5-week-old male mice on day 0, gabapentin or PBS was injected daily to the mice from day 1 to day 15, and their pain levels were measured by von Frey filament test starting on day 14 through 16.
In order to explore the mechanisms behind the gabapentinoid interference with VM202 efficacy, we tested effects of gabapentin on VM202-mediated pain reduction in chronic constriction injury (CCI) mice as presented in FIG. 2. CCI is an animal model widely used for studying neuropathic pain. Specifically, chronic constriction injury (CCI) was introduced by applying loosely constrictive ligatures to the sciatic nerve of 5 week-old male mice. The CCI mice were divided into three groups—in the first group, 200 μg of pCK vector was administered into the cranial thigh muscles as a negative control for VM202 administration (pCK is the vector used in VM202, but lacks the HGF vector payload), in the second group, 200 μg of VM202 was administered into the cranial thigh muscles, and in the third group, no DNA construct was administered. Animals in each of the first and the second group were further divided into two subgroups, with the first subgroup injected daily with 100 mg/kg of gabapentin and the second subgroup injected daily with PBS as a negative control for gabapentin administration, via intraperitoneal cavity for two weeks. The sham group without CCI was also maintained and daily injected with PBS. From day 14 to day 16, Von Frey filament test was performed to assess the level of neuropathic pain (mechanical allodynia).

[2] = Von Frey filament test in CCI mice, gabapentin at different time points, Example 4; type: in vivo
Experimental: The effects of gabepentinoid administration at different time points relative to VM202 administration were tested in chronic constriction injury (CCI) mice.
After CCI surgery, the development of mechanical allodynia was assessed using a Von Frey's filament test once a week, and the level of pain reduction fold was calculated based on the mechanical frequency evaluation. Briefly, animals were placed individually in a cylinder on top of a metal mesh floor for adaptation. To examine the frequency of mechanical sensitivity, mice were assessed by stimulating the hind paw using constant thickness of the filament (0.16 g).
To further understand the delay required to prevent the interference, in a further experiment, CCI mice injected with VM202 were treated with gabapentin after delays for various periods ranging from 0 to 14 days. CCI mice were injected with VM202 or pCK on day 0. The CCI mice were treated with no gabapentin (CONT1, CONT2) or additionally treated with gabapentin starting on day 0 (on the day of VM202 injection, GP1) or day 3 (GP2), day 7 (GP3) or day 10 (GP4) after VM202 injection.
Two weeks after CCI surgery and VM202 or pCK injection, the development of mechanical allodynia was assessed using a Von Frey's filament test, and the level of pain reduction fold was calculated based on the mechanical frequency evaluation for each animal.

c-Jun = test: Western blot of c-Jun in dorsal root ganglion (DRG) cells of nerve crush mice; type: in vivo, mouse
Description: Expressions of c-Jun (top) and GAPDH (bottom) were detected by antibodies specific to each protein. FIG. 7B provides relative levels of c-Jun expression in each sample, calculated by measuring band intensity of c-Jun and comparing the intensity with the band intensity of GAPDH.
c-Jun is well established to be a key factor involved in nerve regeneration, and has been used as a marker for that process. Expression of c-Jun protein prepared from dorsal root ganglion (DRG) cells obtained from a sham mouse (“Sham”) or from a nerve crush mouse (“Crush”) was measured by Western blot assay, using an antibody against c-Jun. […] VM202 treatment further increased c-Jun expression level by 1.3-fold (compare lanes 2 and 3 of FIG. 7A), but such induction was not observed when mice were exposed to gabapentin (compare lanes 5 and 6 of FIG. 7A). The western blot assay results were quantified based on the band intensities and presented in FIG. 7B for their analysis and comparison.

[3] = Nerve pinch test in nerve crush mouse model; type: in vivo, mice; details: day 7
Experimental: FIG. 5 illustrates the experimental procedure for testing gabapentin effects on VM202-mediated nerve regeneration in a nerve crush mouse model. Nerve crush was induced and VM202 administered to 9-week old male C57BL/6 mice on day 1, gabapentin was injected daily from day 2 to day 6, and nerve pinch test was conducted on day 7.
Effects of gabapentinoids on VM202-mediated nerve regeneration were tested in a nerve crush animal model. The protocol is schematized in FIG. 5. Specifically, nerve crush was introduced to 9-week-old C57BL/6 mice by giving brief pressure to their sciatic nerve. On the same day (day 1), the mice were injected with 200 μg of VM202 to the cranial thigh muscles right after the nerve crush. From the next day (day 2), 100 mg/kg gabapentin was administered daily.
On day 7, a nerve pinch test was performed to quantify functional recovery of the injured nerve. For the nerve pinch test, light anesthesia was induced and sciatic nerve was exposed. The injured nerve was pinched from its distal to proximal direction until a reflex response was observed. The distance was then measured between the injury site and the foremost site that produced the response. The distance measured by this method represents the length of regenerated nerves, which is provided on the y-axis in FIG. 6.

[4] = cited from earlier work
[5] = CCI mice given pCK and daily 100 mg/kg gabapentin i.p.

NCC1(CC(=O)O)CCCCC1 [gabapentin]
duration of pain relieving effects [1, 5]: about 6 hours
pain level (paw withdrawal frequency) [1, 5]: decreases in pain levels immediately after the gabapentin administration

VM202: plasmid DNA, HGF-X7 cloned into the pCK vector (SEQ ID NO: 11), expresses flHGF and dHGF; KCCM-10361
pain level versus CCI-pCK ([2]; CCI-VM202-Gaba1: gabapentin from day 0 to day 14): no effects
pain level from day 14 to 28, after gabapentin stopped ([2]; CCI-VM202-Gaba1: gabapentin from day 0 to day 14, none afterwards): continued to have high level of pains
pain relieving effects ([2]; CCI-VM202-Gaba2: gabapentin from day 15 to day 28): significant and maintained
pain level versus CCI-pCK ([2]; CCI-VM202: 200 μg/head VM202 day 0, no gabapentin): significantly reduced the pain level
pain reducing effect two weeks after CCI surgery ([2]; CONT2: no gabapentin): significant pain relief
pain reducing effect two weeks after CCI surgery ([2]; GP1: 100 mg/kg gabapentin started day 0): did not have significant pain reducing effects
pain reducing effect two weeks after CCI surgery ([2]; GP2: 100 mg/kg gabapentin started day 3): did not have significant pain reducing effects
pain reducing effect two weeks after CCI surgery ([2]; GP3: 100 mg/kg gabapentin started day 7): did not have significant pain reducing effects
pain reducing effect two weeks after CCI surgery ([2]; GP4: 100 mg/kg gabapentin started day 10): significant pain relief
increase of c-Jun expression level versus nerve crush mice given pCK (c-Jun; daily PBS (lanes 2 and 3)): 1.3 fold
induction of c-Jun expression versus nerve crush mice given pCK (c-Jun; mice exposed to gabapentin (lanes 5 and 6)): not observed
length of regenerated nerve ([3]; 200 μg VM202, daily 100 mg/kg gabapentin): 1.95±0.3 mm
length of regenerated nerve ([3]; 200 μg VM202, daily PBS): about 4±0.2 mm
length of regenerated nerve, fold versus pCK control ([3]; daily PBS): approximately 2.7 fold
increase of nerve regeneration, fold versus pCK control group ([3]; in the presence of daily gabapentin): 2.3 fold
pain in patients with diabetic peripheral neuropathy ([4]; injections into the calf muscle, two days of treatment spaced two weeks apart): significantly reduce pain
reduction in pain from baseline, patients not on Lyrica and/or Neurontin versus total patient group ([4]; low dose of VM202 (total 16 mg), 3, 6, 9 months): larger reduction in pain
pain relief in patients not taking pregabalin or gabapentin versus patients taking a gabapentinoid ([4]; post hoc analysis of phase II data): more effective in relieving pain in patients not taking pregabalin or gabapentin
duration of symptomatic relief with improvement in quality of life ([4]; two days of treatment, spaced two weeks apart): 3 months
pain level (paw withdrawal frequency) ([1]; CCI mice, 200 μg VM202, no gabapentin, throughout the experimental period): significantly lower pain levels
paw withdrawal frequency ([1]; CCI mice, 200 μg VM202 i.m. plus daily 100 mg/kg gabapentin i.p.): 46.1%
paw withdrawal frequency ([1]; CCI mice, 200 μg VM202 i.m., no gabapentin): 30.56%
time over which pain level increased close to the pCK-PBS level after gabapentin injection ([1]; VM202-treated CCI mice, daily 100 mg/kg gabapentin): about 10 hours
compromise of the pain reduction effect of VM202 by gabapentin ([1]; daily 100 mg/kg gabapentin i.p.): more than 50%
